Target: T1, GSK-3β (Homo sapiens, UniProt P49841)
T1 construct: gene GSK3B
Test: Kinase-Glo luminescent kinase assay, recombinant human GSK-3β, dose-response
Type: biochemical

T1 sequence (P49841 whole entry): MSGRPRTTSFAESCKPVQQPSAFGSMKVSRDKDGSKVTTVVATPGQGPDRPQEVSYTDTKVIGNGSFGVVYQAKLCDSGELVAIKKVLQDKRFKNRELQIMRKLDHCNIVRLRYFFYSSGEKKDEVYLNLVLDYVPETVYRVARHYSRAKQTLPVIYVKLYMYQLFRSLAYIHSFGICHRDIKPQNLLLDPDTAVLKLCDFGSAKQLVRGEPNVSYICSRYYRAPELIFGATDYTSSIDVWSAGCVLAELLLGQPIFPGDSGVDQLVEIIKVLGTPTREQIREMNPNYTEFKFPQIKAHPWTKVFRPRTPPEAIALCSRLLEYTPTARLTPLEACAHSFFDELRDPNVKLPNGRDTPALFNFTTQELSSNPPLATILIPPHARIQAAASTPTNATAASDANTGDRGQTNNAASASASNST

| Structure (SMILES) | IC50 [µM] |
| --- | --- |
| COc1cc(O)c2c(c1CC=C(C)C)O[C@H](c1ccccc1)CC2=O [FLA, (S)-5-hidroxy-7-methoxy-8-(3-methylbut-2-en-1-yl)-2-phenylcroman-4-one] | 16.1 ± 0.6 |
| CC(C)=CCc1c(O)cc(O)c2c1O[C@H](c1ccccc1)CC2=O [glabranin, (S)-5,7-dihydroxy-8-(3-methylbut-2-en-1-yl)-2-phenylchroman-4-one] | 44.8 ± 4 |

From paper PMC11857971, “^11C-Labeling of a Flavanone Extracted from a South American Native Species for Evaluation of Its Interaction with GSK-3β” (Molecules, 2025)
